Assay results: patent publication US20110319432A1 (priority 2009, published 2011)
Where two headings read alike, the source gives them in different places.

System: Phytophthora infestans
Format: cell-based
Settings: MTP, absorption 405 nm, 7 days after inoculation, 18° C

| SMILES | Observed efficacy (0.016 ppm) [%] | Observed efficacy (0.063 ppm) [%] | Observed efficacy (0.25 ppm) [%] |
| --- | --- | --- | --- |
| O=C(NCCc1ncc(C(F)(F)F)cc1Cl)c1ccccc1C(F)(F)F [Fluopyram] | 5 | 5 | – |
| CCCCCCCCc1c(CC)nc2ncnn2c1N [5-Ethyl-6-octyl-[1,2,4]triazolo[1,5-a]pyrimidin-7-ylamine] | – | – | 31 |
